From US20250179061A1 (SIRONAX LTD., priority 2022, published 2025) come the findings set out here.

This experiment concerns HT-29 cells. Kind of experiment: HT-29 necroptosis cell viability assay (TNF-α/SMAC mimetic/zVAD-FMK, CellTiter-Glo). The following applies: Homo sapiens. It is filed as cell-based. In outline:
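Necroptosis was triggered by TNF-α (10 ng/ml), SMAC mimetic (6 μM) and zVAD-FMK (10 μM) in serum-free medium during 20 h compound exposure (10 concentrations, threefold steps) of HT-29 cells. IC50 from duplicate dose-responses uses CellTiter-Glo ATP luminescence as viability read-out.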
For orientation: In ATP-based viability assays light output follows the ATP content of the culture.

The mark [1] stands for this setting: HT-29 cells stimulated with TNF-α (10 ng/ml), SMAC mimetic (6 μM) and zVAD-FMK (10 μM), 20 hours, CellTiter-Glo ATP luminescence, geometric mean IC50 from 10 points, read-out: Activity.
Setting [2] is: HT-29, HT-29 necroptosis cell viability, IC50 class symbols, read-out: Activity.
Where [3] appears, read: HT-29, HT-29 necroptosis cell viability assay, class symbols for IC50, read-out: Activity.
[4] abbreviates: HT-29, HT-29 cells, necroptosis induced by TNF-α/SMAC mimetic/zVAD-FMK, CellTiter-Glo, read-out: Activity (IC50 class).

Like-named read-outs stand apart in the source and are kept apart here.

In the case of `Cc1ncc(Oc2ccc(-n3ncn(Cc4c(F)cccc4F)c3=O)cc2)s1` [Example 99, 4-(2,6-difluorobenzyl)-2-(4-((2-methylthiazol-5-yl)oxy)phenyl)-2,4-dihydro-3H-1,2,4-triazol-3-one], the IC50 under setting [1] was below 100 nM. For `O=c1n(Cc2c(F)cccc2F)cnn1-c1ccc(Oc2ccnc(N3CC4(CCOCC4)C3)c2)cc1` [Example 339, 2-(4-((2-(7-oxa-2-azaspiro[3.5]nonan-2-yl)pyridin-4-yl)oxy)phenyl)-4-(2,6-difluorobenzyl)-2,4-dihydro-3H-1,2,4-triazol-3-one], the IC50 under setting [2] is below 100 nM. Consider `CCOC(=O)c1c(C)cn(Cc2ccc(-n3ncn(Cc4c(F)cccc4F)c3=O)cc2F)c1C` [Example 208, 1-(4-(4-(2,6-difluorobenzyl)-5-oxo-4,5-dihydro-1H-1,2,4-triazol-1-yl)-2-fluorobenzyl)-2,4-dimethyl-1H-pyrrole-3-carboxylate], for which the IC50 under setting [3] was below 100 nM. On to `O=c1n(Cc2c(F)cccc2F)cnn1-c1ccc(Oc2ccnc(N3CC(OC(F)F)C3)c2)cc1` [Example 287, 4-(2,6-difluorobenzyl)-2-(4-((2-(3-(difluoromethoxy)azetidin-1-yl)pyridin-4-yl)oxy)phenyl)-2,4-dihydro-3H-1,2,4-triazol-3-one], for which, under setting [2], the IC50 is below 100 nM. Turning to `Cc1nc(C(C)(C)O)sc1Oc1ccc(-n2ncn(Cc3ccccc3C#N)c2=O)cc1F` [Example 584, 2-((1-(3-fluoro-4-((2-(2-hydroxypropan-2-yl)-4-methylthiazol-5-yl)oxy)phenyl)-5-oxo-1,5-dihydro-4H-1,2,4-triazol-4-yl)methyl)benzonitrile], the IC50 under setting [3] was 100 to 1000 nM.

As for `Cc1cnc(N2CC(C)(C#N)C2)cc1Oc1ccc(-n2ncn(Cc3c(F)cccc3F)c2=O)cc1F` [Example 294, 1-(4-(4-(4-(2,6-difluorobenzyl)-5-oxo-4,5-dihydro-1H-1,2,4-triazol-1-yl)-2-fluorophenoxy)-5-methylpyridin-2-yl)-3-methylazetidine-3-carbonitrile], under setting [2], the IC50 is below 100 nM. For `Cc1nc(Br)cn1Cc1ccc(-n2ncn(Cc3c(F)cccc3F)c2=O)cc1` [Example 666, 2-(4-((4-bromo-2-methyl-1H-imidazol-1-yl)methyl)phenyl)-4-(2,6-difluorobenzyl)-2,4-dihydro-3H-1,2,4-triazol-3-one], the IC50 under setting [4] is below 100 nM. Turning to `CCC(O)(CC)c1nc(C)c(Oc2ccc(-n3ncn(Cc4c(F)cccc4F)c3=O)cc2)s1` [Example 577, 4-(2,6-difluorobenzyl)-2-(4-((2-(3-hydroxypentan-3-yl)-4-methylthiazol-5-yl)oxy)phenyl)-2,4-dihydro-3H-1,2,4-triazol-3-one], the IC50 under setting [3] was below 100 nM. The same measure, in the same setting: the value for `Cc1nc(C(C)N)sc1Oc1ccc(-n2ncn(Cc3c(F)cccc3F)c2=O)cc1F` (stereo not shown) [Example 163, 2-(4-((2-(1-aminoethyl)-4-methylthiazol-5-yl)oxy)-3-fluorophenyl)-4-(2,6-difluorobenzyl)-2,4-dihydro-3H-1,2,4-triazol-3-one] was below 100 nM. Still for that read-out and setting: the value for `Cn1cc(C(C)(C)O)nc1Oc1ccc(-n2ncn(Cc3c(F)cccc3F)c2=O)cc1F` [Example 131, 4-(2,6-difluorobenzyl)-2-(3-fluoro-4-((4-(2-hydroxypropan-2-yl)-1-methyl-1H-imidazol-2-yl)oxy)phenyl)-2,4-dihydro-3H-1,2,4-triazol-3-one] was above 10000 nM. Same read-out and setting: the value for `Cc1nc(C2=CCCC2)sc1Oc1ccc(-n2ncn(Cc3c(F)cccc3F)c2=O)cc1` [Example 546, 2-(4-((2-(cyclopent-1-en-1-yl)-4-methylthiazol-5-yl)oxy)phenyl)-4-(2,6-difluorobenzyl)-2,4-dihydro-3H-1,2,4-triazol-3-one] was below 100 nM; that for `N#Cc1cccn(Cc2ccc(-n3ncn(Cc4c(F)cccc4F)c3=O)cc2)c1=O` [Example 194, 1-(4-(4-(2,6-difluorobenzyl)-5-oxo-4,5-dihydro-1H-1,2,4-triazol-1-yl)benzyl)-2-oxo-1,2-dihydropyridine-3-carbonitrile] was 1000 to 10000 nM; that for `CC1(O)CN(c2cc(S(=O)(=O)c3ccc(-n4ncn(Cc5c(F)cccc5F)c4=O)cc3)ccn2)C1` [Example 493, 4-(2,6-difluorobenzyl)-2-(4-((2-(3-hydroxy-3-methylazetidin-1-yl)pyridin-4-yl)sulfonyl)phenyl)-2,4-dihydro-3H-1,2,4-triazol-3-one] was below 100 nM.

`Cc1c(Oc2ccc(-n3ncn(Cc4c(F)cccc4F)c3=O)cc2F)ccnc1N1CC(C)(C#N)C1` [Example 227, 1-(4-(4-(4-(2,6-difluorobenzyl)-5-oxo-4,5-dihydro-1H-1,2,4-triazol-1-yl)-2-fluorophenoxy)-3-methylpyridin-2-yl)-3-methylazetidine-3-carbonitrile]: the IC50 under setting [2] is below 100 nM. On the same count and under the same terms, the value for `CC1(C)COC(Nc2cc(Oc3ccc(-n4ncn(Cc5c(F)cccc5F)c4=O)cc3F)c(F)cn2)=N1` [Example 474, 4-(2,6-difluorobenzyl)-2-(4-((2-((4,4-dimethyl-4,5-dihydrooxazol-2-yl)amino)-5-fluoropyridin-4-yl)oxy)-3-fluorophenyl)-2,4-dihydro-3H-1,2,4-triazol-3-one] was 100 to 1000 nM; that for `Cc1nc(N2CC(C)(O)C2)sc1Oc1ccc(-n2ncn(Cc3c(F)cccc3F)c2=O)cc1F` [Example 299, 4-(2,6-difluorobenzyl)-2-(3-fluoro-4-((2-(3-hydroxy-3-methylazetidin-1-yl)-4-methylthiazol-5-yl)oxy)phenyl)-2,4-dihydro-3H-1,2,4-triazol-3-one] was below 100 nM. Regarding `Cc1nc(C(=O)NO)sc1Oc1ccc(-n2ncn(Cc3ccccc3F)c2=O)cc1F` [Example 594, 5-(2-fluoro-4-(4-(2-fluorobenzyl)-5-oxo-4,5-dihydro-1H-1,2,4-triazol-1-yl)phenoxy)-N-hydroxy-4-methylthiazole-2-carboxamide], the IC50 under setting [3] lay within 100 to 1000 nM. Regarding `Cc1nc(C(N)=O)sc1Oc1ccc(-n2nc3n(c2=O)C(c2ccc(F)cc2)CC3)cc1F` (stereo not shown) [Example 667, 5-(2-fluoro-4-(5-(4-fluorophenyl)-3-oxo-6,7-dihydro-3H-pyrrolo[1,2-c][1,2,4]triazol-2(5H)-yl)phenoxy)-4-methylthiazole-2-carboxamide], the IC50 under setting [4] is below 100 nM. In the case of `C[C@H]1CCCN1c1cc(Oc2ccc(-n3ncn(Cc4c(F)cccc4F)c3=O)cc2F)c(F)cn1` [Example 297, (S)-4-(2,6-difluorobenzyl)-2-(3-fluoro-4-((5-fluoro-2-(2-methylpyrrolidin-1-yl)pyridin-4-yl)oxy)phenyl)-2,4-dihydro-3H-1,2,4-triazol-3-one], the IC50 under setting [2] is below 100 nM. For the molecule `Cc1nc(C(N)=O)sc1Oc1ccc(-n2nc3n(c2=O)[C@H](c2cncc(F)c2)CC3)cc1F` (single isomer, unassigned) [Example 700], the IC50 under setting [1] is below 100 nM. Regarding `Cc1nc(C(N)=O)sc1Oc1ccc(-n2ncn(Cc3c(F)cccc3F)c2=O)cc1` [Example 560, 5-(4-(4-(2,6-difluorobenzyl)-5-oxo-4,5-dihydro-1H-1,2,4-triazol-1-yl)phenoxy)-4-methylthiazole-2-carboxamide], the IC50 under setting [3] was below 100 nM. Consider `O=c1n(Cc2c(F)cccc2F)cnn1-c1ccc(Oc2ccnc(N3CCC4(CCOCC4)C3)c2)cc1` [Example 340, 2-(4-((2-(8-oxa-2-azaspiro[4.5]decan-2-yl)pyridin-4-yl)oxy)phenyl)-4-(2,6-difluorobenzyl)-2,4-dihydro-3H-1,2,4-triazol-3-one], for which the IC50 under setting [2] is below 100 nM. With `CCOC(=O)c1cc(C)nn1Cc1ccc(-n2ncn(Cc3c(F)cccc3F)c2=O)cc1F` [Example 197, ethyl 1-(4-(4-(2,6-difluorobenzyl)-5-oxo-4,5-dihydro-1H-1,2,4-triazol-1-yl)-2-fluorobenzyl)-3-methyl-1H-pyrazole-5-carboxylate], the IC50 under setting [3] was below 100 nM. Consider `CN(CC1CCCCO1)c1cc(Oc2ccc(-n3ncn(Cc4c(F)cccc4F)c3=O)cc2)ccn1` (stereo not shown) [Example 408, 4-(2,6-difluorobenzyl)-2-(4-((2-(methyl((tetrahydro-2H-pyran-2-yl)methyl)amino)pyridin-4-yl)oxy)phenyl)-2,4-dihydro-3H-1,2,4-triazol-3-one], for which the IC50 under setting [2] was below 100 nM.

Take `Cc1nc(C(=O)NCCN)sc1Oc1ccc(-n2ncn(Cc3ccccc3F)c2=O)cc1F` [Example 148, N-(2-aminoethyl)-5-(2-fluoro-4-(4-(2-fluorobenzyl)-5-oxo-4,5-dihydro-1H-1,2,4-triazol-1-yl)phenoxy)-4-methylthiazole-2-carboxamide]: the IC50 under setting [3] is below 100 nM.

With `O=c1n(Cc2c(F)cccc2F)cnn1-c1ccc(Oc2ccnc(N3CC(F)(C4CC4)C3)c2)cc1` [Example 280, 2-(4-((2-(3-cyclopropyl-3-fluoroazetidin-1-yl)pyridin-4-yl)oxy)phenyl)-4-(2,6-difluorobenzyl)-2,4-dihydro-3H-1,2,4-triazol-3-one], the IC50 under setting [2] is 100 to 1000 nM.

With `N#Cc1ccc(Oc2ccc(-n3ncn(Cc4c(F)cccc4F)c3=O)cc2)cc1` [Example 435, 4-(4-(4-(2,6-difluorobenzyl)-5-oxo-4,5-dihydro-1H-1,2,4-triazol-1-yl)phenoxy)benzonitrile], under setting [2], the IC50 was in the range of 100 to 1000 nM.

In the case of `Cc1nc(C(C)(C)O)n(C)c1Oc1ccc(-n2ncn(Cc3c(F)cccc3F)c2=O)cc1F` [Example 133, 4-(2,6-difluorobenzyl)-2-(3-fluoro-4-((2-(2-hydroxypropan-2-yl)-1,4-dimethyl-1H-imidazol-5-yl)oxy)phenyl)-2,4-dihydro-3H-1,2,4-triazol-3-one], the IC50 under setting [3] is 100 to 1000 nM.
